Assays:
Assay type in all cases: cell-based
[1] = test system: Neisseria subflava ATCC 19243; test: Oxoplate oxygen depletion growth assay; conditions: no oxygen depletion over 18 hours
Experimental: (§1) The anti-bacterial activity of the composition of the invention against a commonly found Gram positive oral bacteria viz. Streptococcus mutans ATCC 25175 and a Gram negative oral bacteria Neisseria subflava ATCC 19243) was determined. This was investigated using Oxoplates. Oxoplates monitor oxygen depletion within the reaction system (containing bacteria, broth and actives).
(§2) A Gram positive (Streptococcus mutans ATCC 25175) and a Gram negative (Neisseria subflava ATCC 19243) bacterium were selected for testing the active solutions. Both bacteria were grown on BHIS agar plates for 24 hours at 37° C./15% CO2, they were then suspended in PBS to a McFarland standard of 2 (˜6×10^8 cells).
(§3) Each active was dissolved in 50% ethanol solutions for testing. All solutions were made at 10 times concentrated to allow for dilution in the plate. Reduced concentrations were used for N. subflava due to the greater sensitivity of this organism to biocides,
(§4) The following components were placed into the wells of the Oxoplates, • 170 µl BHI broth • 20 µl test solution • 10 µl bacteria
(§5) The broth was placed into the Oxoplate first, followed by the test solution, and then the bacterium. Water or 50% ethanol controls were also used in each plate. All solutions were tested in replicates of four. The plates were placed into the fluorescent plate reader, incubated at 37° C. and measured every 15 minutes for 18 hours. The sensors on the bottom of the wells were measured at 2 wavelengths, • Indicator (650/[…]) • Reference (590/540 nm).
(§6) The oxygen concentration was calculated using these values and a calibration performed for maximum and minimum oxygen concentration. A graph was then plotted of the oxygen depletion curves over the 18 hour period, which was used to determine the level at which the bacteria start to deplete the oxygen.

[2] = test system: Streptococcus mutans ATCC 25175; test: Oxoplate oxygen depletion growth assay; conditions: no oxygen depletion over 18 hours
Experimental: as §1, §2, §3, §4, §5, §6

E. coli ATCC 10536 = test: Bacterial kill in test tube after 15 seconds of contact, serial dilution and plating; conditions: log10 of viable E. coli remaining after 15 seconds of contact; about 10^7 cells initially; water as carrier
Experimental: Compositions comprising each individual active and a combination were prepared with water as a carrier (details given in Table 1 below). Terpineol and thymol were obtained from […] aromas, India. […] The data is presented in log (Viable E. Coli) which is the log10 of the number of viable E. […] Eucalyptol and linalool were obtained from Fluka. […] The data in log (Viable E.

Salmonella = test: Viable bacteria remaining after 15 seconds of contact with the actives; conditions: 15 seconds contact, culture added 7.63
Experimental: (§7) About 10^7 bacterial cells (E. coli ATCC 10536) were taken in a test tube and contacted with various compositions for a period of 15 seconds. Bacteria were taken out after 15 seconds of contact and presence of viable cells was determined by serial dilution and plating on agar plates. The data is presented in log (Viable E. Coli) which is the log10 of the number of viable E. Coli remaining after 15 seconds of contact. Thus if 10^4 remained, log (Viable E. Coli) is 4.
(§8) The combination of thymol (0.2%) and terpineol (0.5%) was tested for its efficacy in inhibiting growth of various other bacteria after they are contacted with this combination for about 15 seconds. Similar experiments were carried out with another well known antibacterial active TCC (trichloro carbanilide). The experiments were carried out similar to those of Examples 1 to 3 and the data on the viable bacteria remaining after contact with the actives for 15 seconds is summarized in Table 3

Klebsiella = test: as above; conditions: 15 seconds contact, culture added 7.35
Experimental: as §7, §8

Entereobacter = test: as above; conditions: 15 seconds contact, culture added 6.87
Experimental: as §7, §8

Vibrio cholerae = test: as above; conditions: 15 seconds contact, culture added 7.58
Experimental: as §7, §8

## Cc1ccc(C(C)C)c(O)c1 [Example 28, Thymol]
[1]; thymol concentration
  Concentration of active (wt %) at no growth: Thymol (0.02%) wt %

## Terpineol [Example 24]
[2]; terpineol concentration
  Concentration of active (wt %) at no growth: Terpineol (0.4%) wt %

## Terpineol [Example 2]
E. coli ATCC 10536
  Log (Viable E. coli): 6.3

## O=C(Nc1ccc(Cl)cc1)Nc1ccc(Cl)c(Cl)c1 [0.2% TCC, trichloro carbanilide]
Salmonella
  viable bacteria remaining: 7.33 Log (CFU/ml)
Klebsiella
  viable bacteria remaining: 7.28 Log (CFU/ml)
Entereobacter
  viable bacteria remaining: 6.87 Log (CFU/ml)
Vibrio cholerae
  viable bacteria remaining: 7.20 Log (CFU/ml)

## Cc1ccc(C(C)C)c(O)c1 [Example 1, Thymol]
E. coli ATCC 10536
  Log (Viable E. coli): 3.1

## Terpineol [Example 27]
[1]; terpineol concentration
  Concentration of active (wt %) at no growth: Terpineol (0.08%) wt %

## Cc1ccc(C(C)C)c(O)c1 [Example 25, Thymol]
[2]; thymol concentration
  Concentration of active (wt %) at no growth: Thymol (0.08%) wt %
